Source: patent US20250145619A1, “KHK INHIBITOR, PREPARATION METHOD THEREFOR AND USE THEREOF” (YOUNGENE THERAPEUTICS CO., LTD, priority 2022, published 2025)

target: KHK—C (Homo sapiens (Human), UniProt P50053); test: KHK—C ADP-Glo kinase inhibitory activity assay; format: biochemical; details: 1 nM KHK—C, 200 μM D-Fructose, 100 μM ATP, ADP-Glo luminescence
Excerpt: (KHK—C ADP-Glo Kinase Inhibitory Activity Assay)
Y=Bottom+(Top−Bottom)/(1+10^((LogIC50−X)×HillSlope)) • X: Log value of compound concentration • Y: Inhibition ratio (%)
[formula] • Negative control: DMSO

Sequence of KHK—C (P50053 whole entry): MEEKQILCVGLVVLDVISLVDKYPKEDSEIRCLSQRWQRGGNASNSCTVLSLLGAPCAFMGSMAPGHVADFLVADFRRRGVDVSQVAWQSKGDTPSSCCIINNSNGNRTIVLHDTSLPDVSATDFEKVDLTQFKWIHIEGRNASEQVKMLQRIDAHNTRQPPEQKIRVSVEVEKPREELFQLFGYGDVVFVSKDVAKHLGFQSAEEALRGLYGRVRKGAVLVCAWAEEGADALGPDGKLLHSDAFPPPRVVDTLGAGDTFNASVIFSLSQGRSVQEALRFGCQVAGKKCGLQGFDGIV

Compound | IC50
C[C@H]1CCN1c1nc(N2CC3(CC(C(=O)O)C3)C2)cc(C(F)(F)F)c1C#N [Example 1, (S)-2-(5-cyano-6-(2-methylazetidine-1-yl)-4-(trifluoromethyl)pyridin-2-yl)-2-azaspiro[3.3]heptan-6-carboxylic acid] | 27.9 nM
C[C@H]1CCN1c1nc(N2CC3(CCC(C(=O)O)CC3)C2)cc(C(F)(F)F)c1C#N [Example 2, (S)-2-(5-cyano-6-(2-methylazetidine-1-yl)-4-(trifluoromethyl)pyridin-2-yl)-2-azaspiro[3.5]nonan-7-carboxylic acid] | 143 nM
C[C@H]1CCN1c1nc(N2CCC3(CC2)CC(C(=O)O)C3)cc(C(F)(F)F)c1C#N [Example 3, (S)-7-(5-cyano-6-(2-methylazetidine-1-yl)-4-(trifluoromethyl)pyridin-2-yl)-7-azaspiro[3.5]nonan-2-carboxylic acid] | 115 nM
C[C@H]1CCN1c1nc(N2CC3(C2)CS(=O)(=O)C3)cc(C(F)(F)F)c1C#N [Example 4, (S)-6-(2,2-dioxa-2-thioxa-6-azaspiro[3.3]heptan-6-yl)-2-(2-methylazetidine-1-yl)-4-(trifluoromethyl)nicotinonitrile] | 198 nM
C[C@H]1[C@H](O)CN1c1nc(N2CC3(CC(C(=O)O)C3)C2)cc(C(F)(F)F)c1C#N [Example 5, 2-(5-cyano-6-((2S,3R)-3-hydroxy-2-methylazetidine-1-yl)-4-(trifluoromethyl)pyridin-2-yl)-2-azaspiro[3.3]heptan-6-carboxylic acid] | 110 nM
C[C@H]1CCN1c1nc(N2CC3(CCC(C(=O)O)C3)C2)cc(C(F)(F)F)c1C#N (stereo partly drawn) [Example 7, 2-(5-cyano-6-((S)-2-methylazetidine-1-yl)-4-(trifluoromethyl)pyridin-2-yl)-2-azaspiro[3.4]octan-6-carboxylic acid] | 36 nM
C[C@H]1CCN1c1nc(N2C[C@@H]3[C@@H](CC(=O)O)[C@@H]3C2)cc(C(F)(F)F)c1C#N [Example 8, 2-((1R,5S,6R)-3-(5-cyano-6-((S)-2-methylazetidine-1-yl)-4-(trifluoromethyl)pyridin-2-yl)-3-azabicyclo[3.1.0]hexan-6-yl)acetic acid] | 0.17 nM
C[C@H]1CCN1c1nc(N2CC3(CC(CC(=O)O)C3)C2)cc(C(F)(F)F)c1C#N [Example 9, (S)-2-(2-(5-cyano-6-(2-methylazetidine-1-yl)-4-(trifluoromethyl)pyridin-2-yl)-2-azaspiro[3.3]heptan-6-yl)acetic acid] | 27 nM
CC(C(=O)O)[C@H]1[C@@H]2CN(c3cc(C(F)(F)F)c(C#N)c(N4CC[C@@H]4C)n3)C[C@@H]21 (stereo partly drawn) [Example 10, (R)-2-((1R,5S,6R)-3-(5-cyano-6-((S)-2-methylazetidine-1-yl)-4-(trifluoromethyl)pyridin-2-yl)-3-azabicyclo[3.1.0]hexan-6-yl)propionic acid] | 12.6 nM
C[C@H]1CCN1c1nc(N2CCC(CCC(=O)O)C2)cc(C(F)(F)F)c1C#N (stereo partly drawn) [Example 11, 3-(1-(5-cyano-6-((S)-2-methylazetidine-1-yl)-4-(trifluoromethyl)pyridin-2-yl)pyrrolidin-3-yl)propionic acid] | 12.6 nM
C[C@H]1CCN1c1nc(N2CC3(CN(CC(=O)O)C3)C2)cc(C(F)(F)F)c1C#N [Example 15, (S)-2-(6-(5-cyano-6-(2-methylazetidine-1-yl)-4-(trifluoromethyl)pyridin-2-yl)-2,6-diazaspiro[3.3]heptan-2-yl)acetic acid] | 212 nM
C[C@H]1CCN1c1nc(N2CCC3(CC(C(=O)O)C3)C2)cc(C(F)(F)F)c1C(N)=O (stereo partly drawn) [Example 16, (S)-6-(5-aminoformyl-6-(2-methylazetidine-1-yl)-4-(trifluoromethyl)pyridin-2-yl)-6-azaspiro[3.4]octan-2-carboxylic acid] | 6300 nM
C[C@H]1CCN1c1nc(N2CC3(C2)CS(=O)(=O)C3)cc(C(F)(F)F)c1C(N)=O [Example 17, (S)-6-(2,2-dioxa-2-thioxa-6-azaspiro[3.3]heptan-6-yl)-2-(2-methylazetidine-1-yl)-4-(trifluoromethyl)nicotinamide] | > 10000 nM
C[C@@H](C(=O)O)[C@H]1[C@@H]2CN(c3cc(C(F)(F)F)c(C#N)c(N4CC[C@@H]4C)n3)C[C@@H]21 [Example 18, (R)-2-((1R,5S,6R)-3-(5-cyano-6-((S)-2-methylazetidine-1-yl)-4-(trifluoromethyl)pyridin-2-yl)-3-azabicyclo[3.1.0]hexan-6-yl)propionic acid] | 100 nM
C[C@H](C(=O)O)[C@H]1[C@@H]2CN(c3cc(C(F)(F)F)c(C#N)c(N4CC[C@@H]4C)n3)C[C@@H]21 [Example 19, (S)-2-((1R,5S,6R)-3-(5-cyano-6-((S)-2-methylazetidine-1-yl)-4-(trifluoromethyl)pyridin-2-yl)-3-azabicyclo[3.1.0]hexan-6-yl)propionic acid] | 24.7 nM
C[C@H]1CCN1c1nc(N2CC[C@H](CCC(=O)O)C2)cc(C(F)(F)F)c1C#N [Example 20, 3-((S)-1-(5-cyano-6-((S)-2-methylazetidine-1-yl)-4-(trifluoromethyl)pyridin-2-yl)pyrrolidin-3-yl)propionic acid] | 15.4 nM
C[C@H]1CCN1c1nc(N2CC[C@@H](CCC(=O)O)C2)cc(C(F)(F)F)c1C#N [Example 21, 3-((R)-1-(5-cyano-6-((S)-2-methylazetidine-1-yl)-4-(trifluoromethyl)pyridin-2-yl)pyrrolidin-3-yl)propionic acid] | 81.2 nM
C[C@H]1CCN1c1nc(N2CC3(CC(C(=O)O)C3)C2)c2c(n1)C(F)(F)CC2 [Example 24, (S)-2-(7,7-difluoro-2-(2-methylazetidine-1-yl)-6,7-dihydro-5H-cyclopentadiene[d]pyrimidin-4-yl)-2-azaspiro[3.3]heptan-6-carboxylic acid] | 78.3 nM
C[C@H]1CCN1c1nc(N2CC(CC(=O)O)C2)c2c(n1)C(F)(F)CC2 [Example 25, (S)-2-(1-(7,7-difluoro-2-(2-methylazetidine-1-yl)-6,7-dihydro-5H-cyclopentadiene[d]pyrimidin-4-yl)azetidine-3-yl)acetic acid] | 47 nM
C[C@H]1CCN1c1nc(N2CCC3(CC(C(=O)O)C3)C2)c2c(n1)C(F)(F)CC2 (stereo partly drawn) [Example 26, (S)-6-(7,7-difluoro-2-(2-methylazetidine-1-yl)-6,7-dihydro-5H-cyclopentadiene[d]pyrimidin-4-yl)-6-azaspiro[3.4]octan-2-carboxylic acid] | 42.9 nM
C[C@H]1CCN1c1nc(N2CC3(CCC(C(=O)O)C3)C2)c2c(n1)C(F)(F)CC2 (stereo partly drawn) [Example 27, 2-(7,7-difluoro-2-((S)-2-methylazetidine-1-yl)-6,7-dihydro-5H-cyclopentadiene[d]pyrimidin-4-yl)-2-azaspiro[3.4]octan-6-carboxylic acid] | 59 nM
CC(=O)N[C@@H]1CN(c2nc(N3CC4(CC(C(=O)O)C4)C3)c3c(n2)C(F)(F)CC3)[C@H]1C [Example 28, 2-(2-((2S,3R)-3-acetamido-2-methylazetidine-1-yl)-7,7-difluoro-6,7-dihydro-5H-cyclopentadiene[d]pyrimidin-4-yl)-2-azaspiro[3.3]heptan-6-carboxylic acid] | > 10000 nM
CN[C@@H]1CN(c2nc(N3CC4(CC(C(=O)O)C4)C3)c3c(n2)C(F)(F)CC3)[C@H]1C [Example 29, 2-(7,7-difluoro-2-((2S,3R)-2-methyl-3-(methylamino)azetidine-1-yl)-6,7-dihydro-5H-cyclopentadiene[d]pyrimidin-4-yl)-2-azaspiro[3.3]heptan-6-carboxylic acid] | > 10000 nM
CO[C@@H]1CN(c2nc(N3CC4(CC(C(=O)O)C4)C3)c3c(n2)C(F)(F)CC3)[C@H]1C [Example 30, 2-(7,7-difluoro-2-((2S,3R)-3-methoxy-2-methylazetidine-1-yl)-6,7-dihydro-5H-cyclopentadiene[d]pyrimidin-4-yl)-2-azaspiro[3.3]heptan-6-carboxylic acid] | > 10000 nM
C[C@H]1[C@H](O)CN1c1nc(N2CC3(CC(C(=O)O)C3)C2)c2c(n1)C(F)(F)CC2 [Example 31, 2-(7,7-difluoro-2-((2S,3R)-3-hydroxy-2-methylazetidine-1-yl)-6,7-dihydro-5H-cyclopentadiene[d]pyrimidin-4-yl)-2-azaspiro[3.3]heptan-6-carboxylic acid] | 134 nM
C[C@H]1CCN1c1nc(N2CCC(CC(=O)O)C2)c2c(n1)C(F)(F)CC2 (stereo partly drawn) [Example 32, 2-(1-(7,7-difluoro-2-((S)-2-methylazetidine-1-yl)-6,7-dihydro-5H-cyclopentadiene[d]pyrimidin-4-yl)pyrrolidin-3-yl)acetic acid] | 10.4 nM
C[C@H]1CCN1c1nc(N2CCC(CC(=O)O)CC2)c2c(n1)C(F)(F)CC2 [Example 33, (S)-2-(1-(7,7-difluoro-2-(2-methylazetidine-1-yl)-6,7-dihydro-5H-cyclopentadiene[d]pyrimidin-4-yl)piperidin-4-yl)acetic acid] | 52.8 nM
C[C@H]1CCN1c1nc(N2CC3(CC(CC(=O)O)C3)C2)c2c(n1)C(F)(F)CC2 [Example 34, (S)-2-(2-(7,7-difluoro-2-(2-methylazetidine-1-yl)-6,7-dihydro-5H-cyclopentadiene[d]pyrimidin-4-yl)-2-azaspiro[3.3]heptan-6-yl)acetic acid] | 40 nM
C[C@H]1CCN1c1nc(N2CC3CN(CC(=O)O)CC3C2)c2c(n1)C(F)(F)CC2 (stereo partly drawn) [Example 35, 2-(5-(7,7-difluoro-2-((S)-2-methylazetidine-1-yl)-6,7-dihydro-5H-cyclopentadiene[c]pyrimidin-4-yl)hexahydropyrrolo[3,4-c]pyrrolo-2(1H)-yl)acetic acid] | 142 nM
C[C@H]1CCN1c1nc(N2CC[C@H](CC(=O)O)C2)c2c(n1)C(F)(F)CC2 [Example 36, 2-((R)-1-(7,7-difluoro-2-((S)-2-methylazetidine-1-yl)-6,7-dihydro-5H-cyclopentadiene[d]pyrimidin-4-yl)pyrrolidin-3-yl)acetic acid] | 13.6 nM
